According to PMC4157036, “Does Long-Term Administration of a Beta-Blocker (Timolol) Induce Fibril-Based Cataract Formation In-vivo?” (Iranian Journal of Pharmaceutical Research : IJPR, 2014):

Target: T1, bovine α-crystallin (Bos taurus, UniProt P02470+P02510)
T1 construct: gene CRYAA; native hetero-oligomer purified from bovine lenses (cows under two years), mixture of alphaA and alphaB subunits at about 3:1; no tag
T1 sequence (P02470 1-173): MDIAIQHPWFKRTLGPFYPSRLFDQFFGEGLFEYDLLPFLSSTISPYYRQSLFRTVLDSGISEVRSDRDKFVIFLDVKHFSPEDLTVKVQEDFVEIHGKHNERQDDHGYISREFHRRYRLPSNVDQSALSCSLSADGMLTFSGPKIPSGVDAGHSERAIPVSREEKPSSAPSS
T1 sequence (P02510 1-175): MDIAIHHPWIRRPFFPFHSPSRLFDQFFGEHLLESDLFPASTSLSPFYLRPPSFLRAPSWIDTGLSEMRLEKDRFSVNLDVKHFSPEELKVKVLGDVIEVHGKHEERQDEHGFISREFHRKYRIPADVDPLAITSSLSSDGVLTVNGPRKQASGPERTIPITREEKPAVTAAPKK
Assay: turbidity at […] nm of GdnHCl-induced aggregation at […] °C
Conditions: 5 µM timolol, protein 0.6 mg/mL, 0.1 M phosphate pH 7.4, 60 °C, enhancer of aggregation, direct binding not measured

Question: For `CC(C)(C)NC[C@H](O)COc1nsnc1N1CCOCC1` [timolol], which “aggregation extent (fold)” value is on record?
Answer: ~ 3 fold
